The test system of one test is C57BL/6 mice. Briefly: mouse warm water tail withdrawal. The test is classed as in vivo.
In the next test the target is mu opioid receptor (MOR) (Rattus norvegicus, UniProt P33535). The experiment in a line: [3H]diprenorphine competitive displacement binding, C6-MOR membranes.
Test [1] has as its target delta opioid receptor (DOR) (Rattus norvegicus, UniProt P33533). The experiment in a line: antagonism of DPDPE-stimulated GTPγS binding at DOR. The test is classed as biochemical.

Broadly, the ED50 is the midpoint of the dose-response relation. Usually Ki stands for the equilibrium dissociation constant of an inhibitor or competing ligand from its target. Broadly, the Kb is the affinity of an antagonist, worked out from how it opposes an agonist.

Structures are written as SMILES.

Chain of delta opioid receptor (DOR) (P33533 whole entry): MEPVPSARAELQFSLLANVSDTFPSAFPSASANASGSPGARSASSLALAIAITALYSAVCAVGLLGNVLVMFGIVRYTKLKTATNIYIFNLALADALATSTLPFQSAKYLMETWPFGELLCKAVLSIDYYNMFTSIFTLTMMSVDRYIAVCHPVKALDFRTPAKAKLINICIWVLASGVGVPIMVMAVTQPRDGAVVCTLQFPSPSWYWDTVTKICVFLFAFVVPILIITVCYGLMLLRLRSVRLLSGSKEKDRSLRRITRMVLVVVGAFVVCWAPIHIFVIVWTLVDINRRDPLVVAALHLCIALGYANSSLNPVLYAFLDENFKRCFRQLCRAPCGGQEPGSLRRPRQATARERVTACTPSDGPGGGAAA
Chain of mu opioid receptor (MOR) (P33535 whole entry): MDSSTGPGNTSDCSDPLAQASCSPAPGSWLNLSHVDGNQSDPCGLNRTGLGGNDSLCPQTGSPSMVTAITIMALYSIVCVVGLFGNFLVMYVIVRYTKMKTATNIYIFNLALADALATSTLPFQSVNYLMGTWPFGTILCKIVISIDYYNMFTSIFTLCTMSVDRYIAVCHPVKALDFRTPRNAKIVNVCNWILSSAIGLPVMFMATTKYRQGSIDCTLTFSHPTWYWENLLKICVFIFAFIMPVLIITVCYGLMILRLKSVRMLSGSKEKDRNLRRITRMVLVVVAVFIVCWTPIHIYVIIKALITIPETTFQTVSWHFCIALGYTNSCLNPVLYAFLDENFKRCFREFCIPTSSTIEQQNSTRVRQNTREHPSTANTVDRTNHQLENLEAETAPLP

For `Cc1cc(O)cc(C)c1C[C@H](N)C(=O)N[C@@H]1CCNc2ccc(Cc3ccccc3)cc21` [1 (4R)], the 50% effective dose (ED50) in the test with C57BL/6 mice (Mus musculus, ip, read-out: ED50, tail withdrawal latency) was around 6 µmol/kg. Further, the “antinociceptive potency compared with morphine” value in the test on C57BL/6 mice (mouse WWTW after intraperitoneal administration) is given as “approximately equipotent to morphine”. The “time maximal antinociception is maintained” value in the test on C57BL/6 mice (mouse WWTW time course, 10 mg/kg ip) is given as “approximately 60 minutes”. Further, in the test with C57BL/6 mice (naltrexone 1mg/kg ip, 30 min pretreatment, mouse WWTW), the “effect of naltrexone pretreatment on dose/response curve” value was “rightward shift”.
In turn, `Cc1cc(O)cc(C)c1C[C@H](N)C(=O)N[C@@H]1CCNc2ccc(Cc3cccc4ccccc34)cc21` [Compound 15b, (2S)-2-Amino-3-(4-hydroxy-2,6-dimethylphenyl)-N-(6-(naphthalen-1-ylmethyl)-1,2,3,4-tetrahydroquinolin-4-yl)propanamide] showed a Ki at mu opioid receptor (MOR) of 0.76 ± 0.14 nM.
In test [1], `Cc1cc(O)cc(C)c1C[C@H](N)C(=O)NC1CCNc2ccc(Cc3ccc4ccccc4c3)cc21` (stereo partly drawn) [Compound 15c, (2S)-2-Amino-3-(4-hydroxy-2,6-dimethylphenyl)-N-(6-(naphthalen-2-ylmethyl)-1,2,3,4-tetrahydroquinolin-4-yl)propanamide] showed an antagonist equilibrium constant (Kb) of 34.3 nM.

(Values after publication PMC3618660 (Journal of medicinal chemistry, 2013).)
